In ChEMBL document CHEMBL1770127, “2-(2-Aminothiazol-4-yl)pyrrolidine-based tartrate diamides as potent, selective and orally bioavailable TACE inhibitors” (Bioorg Med Chem Lett, 2011):

How the values were obtained:
[1] = target: Matrix metalloproteinase-14 (Homo sapiens, UniProt P50281); test: Inhibition of MMP14
Stromelysin-1 = Stromelysin-1 (Homo sapiens, UniProt P08254); test: Inhibition of MMP3
Collagenase 3 = Collagenase 3 (Homo sapiens, UniProt P45452); test: Inhibition of MMP13
[2] = target: T1, Disintegrin and metalloproteinase domain-containing protein 10 (Homo sapiens, UniProt O14672); test: Inhibition of ADAM10
T1 sequence (O14672 whole entry): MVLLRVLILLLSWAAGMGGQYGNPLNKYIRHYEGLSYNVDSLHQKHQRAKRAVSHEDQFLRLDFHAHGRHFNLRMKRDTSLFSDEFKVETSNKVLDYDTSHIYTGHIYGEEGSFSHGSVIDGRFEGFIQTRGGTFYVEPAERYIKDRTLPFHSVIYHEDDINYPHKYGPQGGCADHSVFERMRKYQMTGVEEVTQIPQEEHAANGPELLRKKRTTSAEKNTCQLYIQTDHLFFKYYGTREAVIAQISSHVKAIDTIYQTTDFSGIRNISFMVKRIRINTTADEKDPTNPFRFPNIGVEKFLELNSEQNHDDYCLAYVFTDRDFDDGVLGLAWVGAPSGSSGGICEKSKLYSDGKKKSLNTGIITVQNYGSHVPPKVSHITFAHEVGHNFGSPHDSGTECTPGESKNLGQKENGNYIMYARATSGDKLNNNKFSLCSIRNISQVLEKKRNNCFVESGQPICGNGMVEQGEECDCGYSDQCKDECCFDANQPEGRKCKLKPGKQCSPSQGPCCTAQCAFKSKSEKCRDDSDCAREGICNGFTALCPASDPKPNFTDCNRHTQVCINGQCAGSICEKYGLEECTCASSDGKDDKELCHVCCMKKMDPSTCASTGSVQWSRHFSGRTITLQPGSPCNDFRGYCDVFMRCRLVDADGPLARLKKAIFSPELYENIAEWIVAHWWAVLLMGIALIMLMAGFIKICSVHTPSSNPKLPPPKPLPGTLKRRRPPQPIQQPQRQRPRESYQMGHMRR

[3] = AUC in Sprague-Dawley rat at 10 mg/kg, po measured within 6 hrs after post-dosing by LC/MS/MS analysis; format: ADME, organism-based; parameters: time < 6 hr, dose 10 mg/kg, route oral; details: plasma
[4] = target: T2, Disintegrin and metalloproteinase domain-containing protein 17 (Homo sapiens, UniProt P78536); test: Inhibition of TACE by cell based assay
T2 sequence (P78536 whole entry, the tested form may be a part): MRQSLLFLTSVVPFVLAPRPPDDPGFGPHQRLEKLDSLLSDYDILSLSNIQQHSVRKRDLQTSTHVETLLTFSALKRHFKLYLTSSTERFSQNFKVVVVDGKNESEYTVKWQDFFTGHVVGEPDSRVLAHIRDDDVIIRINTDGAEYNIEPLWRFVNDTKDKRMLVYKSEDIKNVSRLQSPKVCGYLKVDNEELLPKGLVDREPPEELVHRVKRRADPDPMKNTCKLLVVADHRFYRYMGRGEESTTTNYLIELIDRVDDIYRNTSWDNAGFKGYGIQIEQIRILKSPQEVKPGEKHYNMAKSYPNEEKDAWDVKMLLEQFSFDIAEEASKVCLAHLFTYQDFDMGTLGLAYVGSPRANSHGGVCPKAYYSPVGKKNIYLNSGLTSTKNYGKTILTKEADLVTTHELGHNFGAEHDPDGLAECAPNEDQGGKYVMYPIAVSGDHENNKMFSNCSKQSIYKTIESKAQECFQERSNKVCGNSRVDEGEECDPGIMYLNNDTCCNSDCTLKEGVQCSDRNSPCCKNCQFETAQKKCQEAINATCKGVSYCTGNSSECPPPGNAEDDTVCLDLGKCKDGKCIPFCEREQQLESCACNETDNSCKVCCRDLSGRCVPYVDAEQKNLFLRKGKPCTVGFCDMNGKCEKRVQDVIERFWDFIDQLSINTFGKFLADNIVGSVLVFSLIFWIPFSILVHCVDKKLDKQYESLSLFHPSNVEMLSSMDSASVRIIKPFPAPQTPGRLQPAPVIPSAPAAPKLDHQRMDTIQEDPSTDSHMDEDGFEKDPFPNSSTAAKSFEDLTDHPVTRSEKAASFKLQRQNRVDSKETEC

[5] = Plasma concentration in Sprague-Dawley rat at 10 mg/kg, po measured after 6 hrs by LC/MS/MS analysis; format: ADME, organism-based; parameters: dose 10 mg/kg, route oral
Interstitial collagenase = target: T3, Interstitial collagenase (Homo sapiens, UniProt P03956); test: Inhibition of MMP1
T3 sequence (P03956 whole entry): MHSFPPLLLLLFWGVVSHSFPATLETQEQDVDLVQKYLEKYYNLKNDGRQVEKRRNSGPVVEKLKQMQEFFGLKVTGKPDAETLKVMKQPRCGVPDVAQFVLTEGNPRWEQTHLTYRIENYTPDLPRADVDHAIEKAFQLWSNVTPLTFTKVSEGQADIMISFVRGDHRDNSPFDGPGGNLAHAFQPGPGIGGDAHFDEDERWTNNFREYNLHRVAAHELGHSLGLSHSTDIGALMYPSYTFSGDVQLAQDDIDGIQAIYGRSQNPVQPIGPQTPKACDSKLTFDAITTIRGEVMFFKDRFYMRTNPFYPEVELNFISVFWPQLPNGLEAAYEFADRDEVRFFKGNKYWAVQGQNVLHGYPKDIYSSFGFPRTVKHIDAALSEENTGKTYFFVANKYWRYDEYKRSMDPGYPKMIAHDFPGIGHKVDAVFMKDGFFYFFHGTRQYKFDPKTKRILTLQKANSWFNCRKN

Matrilysin = target: T4, Matrilysin (Homo sapiens, UniProt P09237); test: Inhibition of MMP7
T4 sequence (P09237 whole entry): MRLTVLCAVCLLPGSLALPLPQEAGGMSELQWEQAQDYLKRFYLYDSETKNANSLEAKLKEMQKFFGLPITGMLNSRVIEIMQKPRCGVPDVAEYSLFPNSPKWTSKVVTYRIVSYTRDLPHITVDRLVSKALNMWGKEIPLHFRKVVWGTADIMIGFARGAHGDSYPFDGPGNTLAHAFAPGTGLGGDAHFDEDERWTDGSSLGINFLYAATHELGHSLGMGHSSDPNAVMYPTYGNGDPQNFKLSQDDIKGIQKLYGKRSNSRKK

[6] = target: 72 kDa type IV collagenase (Homo sapiens, UniProt P08253); test: Inhibition of MMP2
72 kDa type IV collagenase, sequence (P08253 whole entry, the tested form may be a part): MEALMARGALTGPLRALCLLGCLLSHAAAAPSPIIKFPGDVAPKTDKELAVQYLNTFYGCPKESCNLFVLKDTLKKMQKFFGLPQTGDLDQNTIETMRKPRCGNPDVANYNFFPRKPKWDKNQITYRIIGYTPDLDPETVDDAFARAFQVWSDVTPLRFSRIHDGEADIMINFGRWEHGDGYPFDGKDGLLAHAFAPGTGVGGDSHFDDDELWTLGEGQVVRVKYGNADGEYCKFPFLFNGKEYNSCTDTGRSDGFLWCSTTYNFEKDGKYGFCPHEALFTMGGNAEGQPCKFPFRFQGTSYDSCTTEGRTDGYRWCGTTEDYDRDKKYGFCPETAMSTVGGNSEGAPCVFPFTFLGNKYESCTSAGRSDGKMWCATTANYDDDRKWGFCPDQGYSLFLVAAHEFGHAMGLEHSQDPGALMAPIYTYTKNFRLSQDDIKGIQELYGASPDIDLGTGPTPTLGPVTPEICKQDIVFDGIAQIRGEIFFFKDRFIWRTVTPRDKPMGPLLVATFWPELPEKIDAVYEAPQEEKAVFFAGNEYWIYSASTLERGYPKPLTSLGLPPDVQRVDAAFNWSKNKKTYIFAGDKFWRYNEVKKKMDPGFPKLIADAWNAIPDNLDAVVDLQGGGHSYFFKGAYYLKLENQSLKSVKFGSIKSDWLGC

[7] = target: T2, Disintegrin and metalloproteinase domain-containing protein 17; test: Inhibition of TACE
[8] = target: Matrix metalloproteinase-9 (Homo sapiens, UniProt P14780); test: Inhibition of MMP9
Matrix metalloproteinase-9, sequence (P14780 whole entry): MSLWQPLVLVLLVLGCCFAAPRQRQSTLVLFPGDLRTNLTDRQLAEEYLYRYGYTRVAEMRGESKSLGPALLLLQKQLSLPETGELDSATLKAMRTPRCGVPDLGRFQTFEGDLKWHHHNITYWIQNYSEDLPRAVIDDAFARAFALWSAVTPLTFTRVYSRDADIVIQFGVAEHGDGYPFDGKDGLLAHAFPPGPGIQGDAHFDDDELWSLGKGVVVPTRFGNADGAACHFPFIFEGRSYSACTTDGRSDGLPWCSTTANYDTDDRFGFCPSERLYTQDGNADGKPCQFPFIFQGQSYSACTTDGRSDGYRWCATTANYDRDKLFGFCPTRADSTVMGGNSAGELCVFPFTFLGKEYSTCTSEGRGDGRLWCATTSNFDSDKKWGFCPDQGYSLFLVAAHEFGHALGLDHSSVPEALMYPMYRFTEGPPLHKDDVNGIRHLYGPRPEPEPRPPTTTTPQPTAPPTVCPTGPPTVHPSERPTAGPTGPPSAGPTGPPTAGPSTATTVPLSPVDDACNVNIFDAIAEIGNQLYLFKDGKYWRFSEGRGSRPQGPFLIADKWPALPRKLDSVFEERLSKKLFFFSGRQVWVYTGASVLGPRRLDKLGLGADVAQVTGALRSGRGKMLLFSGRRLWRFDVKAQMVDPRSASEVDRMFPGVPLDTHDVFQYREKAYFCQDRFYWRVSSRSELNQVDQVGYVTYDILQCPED

Stromelysin-1, sequence (P08254 whole entry): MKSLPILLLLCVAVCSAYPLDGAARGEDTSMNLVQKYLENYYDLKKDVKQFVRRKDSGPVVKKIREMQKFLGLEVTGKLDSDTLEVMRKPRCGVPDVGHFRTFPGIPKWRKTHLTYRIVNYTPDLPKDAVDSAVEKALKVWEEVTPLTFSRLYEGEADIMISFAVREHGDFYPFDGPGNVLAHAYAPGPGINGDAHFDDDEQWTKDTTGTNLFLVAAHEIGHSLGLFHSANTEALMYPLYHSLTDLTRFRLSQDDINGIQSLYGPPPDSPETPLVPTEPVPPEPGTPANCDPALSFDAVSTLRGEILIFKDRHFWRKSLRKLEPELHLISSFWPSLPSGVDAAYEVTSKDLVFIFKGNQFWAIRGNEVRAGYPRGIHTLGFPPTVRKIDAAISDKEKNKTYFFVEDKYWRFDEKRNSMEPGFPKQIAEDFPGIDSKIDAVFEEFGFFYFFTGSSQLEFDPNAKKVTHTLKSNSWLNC

In the case of `C[C@@H](NC(=O)[C@H](O)[C@@H](O)C(=O)N1CCC[C@@H]1c1csc(NC2CC2)n1)c1ccc(-n2cccn2)cc1`, the Ki [1] is reported as greater than 40 µM, the Ki (Stromelysin-1) is reported as greater than 40 µM and the Ki (Collagenase 3) is reported as greater than 40 µM. The Ki [2] was 1.35 µM, the AUC at 6 h [3] was 134 µM·h and the IC50 [4] was 3.02 µM. The concentration at 6 h [5] was 17.6 µM, the Ki (Interstitial collagenase) was greater than 40 µM and the Ki (Matrilysin) was 18.1 µM. The Ki [6] was 20.5 µM, the Ki [7] was 0.005 µM and the Ki [8] was greater than 40 µM.

In the case of `C[C@@H](NC(=O)[C@H](O)[C@@H](O)C(=O)N1CCC[C@@H]1c1csc(NC2CCC2)n1)c1ccc(-n2cccn2)cc1`, the AUC at 6 h [3] is reported as 31.4 µM·h, the IC50 [4] is reported as 2.15 µM and the concentration at 6 h [5] is reported as 3.54 µM. It also gave a Ki [7] of 0.004 µM.

`C[C@@H](NC(=O)[C@H](O)[C@@H](O)C(=O)N1CCC[C@@H]1c1cccc(Cl)c1)c1ccc(-n2cccn2)cc1` showed an AUC at 6 h [3] of 2.95 µM·h, a concentration at 6 h [5] of 0.096 µM and a Ki (Interstitial collagenase) greater than 100 µM. The Ki [7] was 0.0008 µM.

`CNc1nc([C@H]2CCCN2C(=O)[C@H](O)[C@@H](O)C(=O)N[C@H](C)c2ccc(-n3cccn3)cc2)c(C2CC2)s1` showed an AUC at 6 h [3] of 11.4 µM·h, an IC50 [4] of 2.57 µM and a Ki [7] of 0.002 µM.

`C[C@@H](NC(=O)[C@H](O)[C@@H](O)C(=O)N1CCC[C@@H]1c1csc(N)n1)c1ccc(-n2cccn2)cc1` showed an AUC at 6 h [3] of 2.28 µM·h, an IC50 [4] of 4.29 µM and a concentration at 6 h [5] of 0.247 µM. For the same compound, the Ki [7] was 0.006 µM.

For `CNc1nc([C@H]2c3cc(F)ccc3CN2C(=O)[C@H](O)[C@@H](O)C(=O)N[C@H](C)c2ccc(-n3cccn3)cc2)cs1`, the AUC at 6 h [3] was 0.237 µM·h, the IC50 [4] was 0.384 µM and the Ki [7] was 0.016 µM.

Work on `C[C@@H](NC(=O)[C@H](O)[C@@H](O)C(=O)N1CCC[C@@H]1c1ccn(C)n1)c1ccc(-n2cccn2)cc1` yielded an AUC at 6 h [3] of 2.92 µM·h, a concentration at 6 h [5] of 0.086 µM and a Ki [7] of 0.004 µM.

Compound `CC(C)Nc1nc([C@H]2CCCN2C(=O)[C@H](O)[C@@H](O)C(=O)N[C@H](C)c2ccc(-n3cccn3)cc2)cs1` has an AUC at 6 h [3] of 115 µM·h, an IC50 [4] of 6.68 µM and a concentration at 6 h [5] of 12.3 µM. It also gave a Ki [7] of 0.017 µM.

With `CNc1nc([C@H]2C=CCN2C(=O)[C@H](O)[C@@H](O)C(=O)N[C@H](C)c2ccc(-n3cccn3)cc2)cs1` the AUC at 6 h [3] was 1.81 µM·h, the IC50 [4] was 1.34 µM and the Ki [7] was 0.0006 µM.

`CNc1nc([C@H]2CCCN2C(=O)[C@H](O)[C@@H](O)C(=O)N[C@H](C)c2ccc(-n3cccn3)cc2)c(C#N)s1` showed an AUC at 6 h [3] of 0.154 µM·h, an IC50 [4] of 3.04 µM and a Ki [7] of 0.002 µM.

Work on `CCNc1nc([C@H]2C[C@@H](C)CN2C(=O)[C@H](O)[C@@H](O)C(=O)N[C@H](C)c2ccc(-n3cccn3)cc2)cs1` yielded an AUC at 6 h [3] of 5.62 µM·h, an IC50 [4] of 4.04 µM and a Ki [7] of 0.006 µM.

For `CNc1nc([C@H]2CCCN2C(=O)[C@H](O)[C@@H](O)C(=O)N[C@H](C)c2ccc(-n3cccn3)cc2)cs1`, the AUC at 6 h [3] was 30.7 µM·h, the IC50 [4] was 5.8 µM and the concentration at 6 h [5] was 2.54 µM. It also gave a Ki [7] of 0.007 µM.

For `C[C@@H](NC(=O)[C@H](O)[C@@H](O)C(=O)N1CCC[C@@H]1c1csc(Nc2ccccc2F)n1)c1ccc(-n2cccn2)cc1`, the AUC at 6 h [3] was 0.13 µM·h, the IC50 [4] was 1.14 µM and the Ki [7] was 0.001 µM.

For `CNc1nc(C2(C)CCCN2C(=O)[C@H](O)[C@@H](O)C(=O)N[C@H](C)c2ccc(-n3cccn3)cc2)cs1` (mixture of isomers), the AUC at 6 h [3] was 2.44 µM·h, the IC50 [4] was 13.8 µM and the Ki [7] was 0.009 µM.

For `CCNc1nc([C@H]2CCCN2C(=O)[C@H](O)[C@@H](O)C(=O)N[C@H](C)c2ccc(-n3cccn3)cc2)cs1`, the AUC at 6 h [3] was 52 µM·h, the IC50 [4] was 5.11 µM and the concentration at 6 h [5] was 5.97 µM. The Ki [7] was 0.007 µM.

Work on `CNc1nc([C@H]2CC(F)(F)CN2C(=O)[C@H](O)[C@@H](O)C(=O)N[C@H](C)c2ccc(-n3cccn3)cc2)cs1` yielded an AUC at 6 h [3] of 1.42 µM·h, an IC50 [4] of 2.77 µM and a Ki [7] of 0.004 µM.

`CNc1nc([C@H]2c3ccccc3CN2C(=O)[C@H](O)[C@@H](O)C(=O)N[C@H](C)c2ccc(-n3cccn3)cc2)cs1` showed a Ki [1] of 16.4 µM, a Ki (Stromelysin-1) greater than 40 µM and a Ki (Collagenase 3) of 14.1 µM. For the same compound, the Ki [2] was 0.12 µM, the AUC at 6 h [3] was 1.13 µM·h and the IC50 [4] was 0.416 µM. The Ki (Interstitial collagenase) was greater than 40 µM, the Ki (Matrilysin) was 13.5 µM and the Ki [6] was greater than 40 µM. For the same compound, the Ki [7] was 0.001 µM and the Ki [8] was 10.1 µM.

Work on `CCCNc1nc([C@H]2CCCN2C(=O)[C@H](O)[C@@H](O)C(=O)N[C@H](C)c2ccc(-n3cccn3)cc2)cs1` yielded an AUC at 6 h [3] of 48.3 µM·h, an IC50 [4] of 4.48 µM and a concentration at 6 h [5] of 5.4 µM. For the same compound, the Ki [7] was 0.004 µM.
